# Reference: ChEMBL document CHEMBL4007388, “Synthesis and antiproliferative activity of monocationic arylthiophene derivatives” (Eur J Med Chem, 2017)
# Assays:
# [1] = tested on: HOP-92; experiment: Growth inhibition of human HOP92 cells incubated for 48 hrs by sulforhodamine B assay; type: functional; conditions: HOP-92, 48 h
# [2] = Growth inhibition of human NCI60 cells at 10 uM after 48 hrs by SRB assay relative to control; values are per cent of control; conditions: NCI60, 48 h
# [3] = tested on: K562; experiment: Growth inhibition of human K562 cells incubated for 48 hrs by sulforhodamine B assay; type: functional; conditions: K562, 48 h
# [4] = tested on: SK-MEL-2; experiment: Growth inhibition of human SK-MEL-2 cells incubated for 48 hrs by sulforhodamine B assay; type: functional; conditions: SK-MEL-2, 48 h
# [5] = tested on: OVCAR-5; experiment: Growth inhibition of human OVCAR5 cells incubated for 48 hrs by sulforhodamine B assay; type: functional; conditions: OVCAR-5, 48 h
# [6] = tested on: MCF7; experiment: Growth inhibition of human MCF7 cells incubated for 48 hrs by sulforhodamine B assay; type: functional; conditions: MCF7, 48 h
# [7] = tested on: UO-31; experiment: Growth inhibition of human UO31 cells incubated for 48 hrs by sulforhodamine B assay; type: functional; conditions: UO-31, 48 h
# [8] = tested on: OVCAR-4; experiment: Growth inhibition of human OVCAR4 cells incubated for 48 hrs by sulforhodamine B assay; type: functional; conditions: OVCAR-4, 48 h
# [9] = tested on: ACHN; experiment: Growth inhibition of human ACHN cells incubated for 48 hrs by sulforhodamine B assay; type: functional
# [10] = tested on: NCI-H522; experiment: Growth inhibition of human NCI-H522 cells incubated for 48 hrs by sulforhodamine B assay; type: functional; conditions: NCI-H522, 48 h
# [11] = tested on: OVCAR-3; experiment: Growth inhibition of human OVCAR3 cells incubated for 48 hrs by sulforhodamine B assay; type: functional; conditions: OVCAR-3, 48 h
# [12] = tested on: SF-268; experiment: Growth inhibition of human SF268 cells incubated for 48 hrs by sulforhodamine B assay; type: functional; conditions: SF-268, 48 h
# [13] = tested on: A549; experiment: Growth inhibition of human A549/ATCC cells incubated for 48 hrs by sulforhodamine B assay; type: functional; conditions: A549, 48 h
# [14] = tested on: MDA-MB-435; experiment: Growth inhibition of human MDA-MB-435 cells incubated for 48 hrs by sulforhodamine B assay; type: functional; conditions: MDA-MB-435, 48 h
# [15] = tested on: Hs-578T; experiment: Growth inhibition of human Hs 578T cells incubated for 48 hrs by sulforhodamine B assay; type: functional
# [16] = tested on: 786-0; experiment: Growth inhibition of human 786-O cells incubated for 48 hrs by sulforhodamine B assay; type: functional; conditions: 786-0, 48 h
# [17] = tested on: NCI/ADR-RES; experiment: Growth inhibition of human NCI/ADR-RES cells incubated for 48 hrs by sulforhodamine B assay; type: functional
# [18] = tested on: HCT-116; experiment: Growth inhibition of human HCT116 cells incubated for 48 hrs by sulforhodamine B assay; type: functional; conditions: HCT-116, 48 h
# [19] = tested on: UACC-62; experiment: Growth inhibition of human UACC62 cells incubated for 48 hrs by sulforhodamine B assay; type: functional; conditions: UACC-62, 48 h
# [20] = tested on: SN12C; experiment: Growth inhibition of human SN12C cells incubated for 48 hrs by sulforhodamine B assay; type: functional
# [21] = tested on: MDA-MB-468; experiment: Growth inhibition of human MDA-MB-468 cells incubated for 48 hrs by sulforhodamine B assay; type: functional; conditions: MDA-MB-468, 48 h
# [22] = tested on: COLO 205; experiment: Growth inhibition of human COLO205 cells incubated for 48 hrs by sulforhodamine B assay; type: functional; conditions: COLO 205, 48 h
# [23] = tested on: OVCAR-8; experiment: Growth inhibition of human OVCAR8 cells incubated for 48 hrs by sulforhodamine B assay; type: functional; conditions: OVCAR-8, 48 h
# [24] = tested on: Escherichia coli; experiment: Induction of Escherichia coli genomic DNA cleavage after 1 hr by agarose gel electrophoresis method
# [25] = tested on: SF-539; experiment: Growth inhibition of human SF539 cells incubated for 48 hrs by sulforhodamine B assay; type: functional; conditions: SF-539, 48 h
# [26] = tested on: HCT-15; experiment: Growth inhibition of human HCT15 cells incubated for 48 hrs by sulforhodamine B assay; type: functional; conditions: HCT-15, 48 h
# [27] = tested on: UACC-257; experiment: Growth inhibition of human UACC257 cells incubated for 48 hrs by sulforhodamine B assay; type: functional; conditions: UACC-257, 48 h
# [28] = tested on: LOX IMVI; experiment: Growth inhibition of human LOXIMVI cells incubated for 48 hrs by sulforhodamine B assay; type: functional
# [29] = tested on: HT-29; experiment: Growth inhibition of human HT-29 cells incubated for 48 hrs by sulforhodamine B assay; type: functional; conditions: HT-29, 48 h
# [30] = tested on: SNB-19; experiment: Growth inhibition of human SNB19 cells incubated for 48 hrs by sulforhodamine B assay; type: functional; conditions: SNB-19, 48 h
# [31] = tested on: SK-MEL-28; experiment: Growth inhibition of human SK-MEL-28 cells incubated for 48 hrs by sulforhodamine B assay; type: functional; conditions: SK-MEL-28, 48 h
# [32] = tested on: RXF 393; experiment: Growth inhibition of human RXF393 cells incubated for 48 hrs by sulforhodamine B assay; type: functional; conditions: RXF 393, 48 h
# [33] = tested on: SK-OV-3; experiment: Growth inhibition of human SKOV3 cells incubated for 48 hrs by sulforhodamine B assay; type: functional; conditions: SK-OV-3, 48 h
# [34] = tested on: M14; experiment: Growth inhibition of human M14 cells incubated for 48 hrs by sulforhodamine B assay; type: functional; conditions: M14, 48 h
# [35] = tested on: CAKI-1; experiment: Growth inhibition of human Caki1 cells incubated for 48 hrs by sulforhodamine B assay; type: functional; conditions: CAKI-1, 48 h
# [36] = tested on: PC-3; experiment: Growth inhibition of human PC3 cells incubated for 48 hrs by sulforhodamine B assay; type: functional; conditions: PC-3, 48 h
# [37] = tested on: Malme-3M; experiment: Growth inhibition of human MALME-3M cells incubated for 48 hrs by sulforhodamine B assay; type: functional
# [38] = tested on: SNB-75; experiment: Growth inhibition of human SNB75 cells incubated for 48 hrs by sulforhodamine B assay; type: functional; conditions: SNB-75, 48 h
# [39] = Antioxidant activity assessed as superoxide dismutase-like activity by measuring inhibition of superoxide radical anion production at 2 uM by NBT reduction assay relative to control; type: functional
# [40] = tested on: NCI-H23; experiment: Growth inhibition of human NCI-H23 cells incubated for 48 hrs by sulforhodamine B assay; type: functional; conditions: NCI-H23, 48 h
# [41] = tested on: SW-620; experiment: Growth inhibition of human SW620 cells incubated for 48 hrs by sulforhodamine B assay; type: functional; conditions: SW-620, 48 h
# [42] = tested on: WI-38; experiment: Cytotoxicity against human WI38 cells assessed as reduction in cell viability after 24 hrs by MTT assay; type: cell-based; conditions: WI-38, 24 h
# [43] = tested on: NCI-H460; experiment: Growth inhibition of human NCI-H460 cells incubated for 48 hrs by sulforhodamine B assay; type: functional; conditions: NCI-H460, 48 h
# [44] = tested on: NCI-H322M; experiment: Growth inhibition of human NCI-H322M cells incubated for 48 hrs by sulforhodamine B assay; type: functional
# [45] = tested on: SK-MEL-5; experiment: Growth inhibition of human SK-MEL-5 cells incubated for 48 hrs by sulforhodamine B assay; type: functional; conditions: SK-MEL-5, 48 h
# [46] = tested on: U-251; experiment: Growth inhibition of human U251 cells incubated for 48 hrs by sulforhodamine B assay; type: functional; conditions: U-251, 48 h
# [47] = tested on: RPMI-8226; experiment: Growth inhibition of human RPMI8226 cells incubated for 48 hrs by sulforhodamine B assay; type: functional; conditions: RPMI-8226, 48 h
compound,measurement,setting,value
COc1cc(OC)cc(-c2ccc(-c3ccc(C(=N)N)c(F)c3)s2)c1,GI50,[1],665 nM
same,growth percent at 10 µM,[2],-77.8%
same,GI50,[3],262 nM
same,GI50,[4],1860 nM
same,GI50,[5],207 nM
same,GI50,[6],194 nM
same,GI50,[7],473 nM
same,GI50,[8],361 nM
same,GI50,[9],181 nM
same,GI50,[10],1200 nM
same,GI50,[11],815 nM
same,GI50,[12],1150 nM
same,GI50,[13],400 nM
same,GI50,[14],194 nM
same,GI50,[15],1470 nM
same,GI50,[16],174 nM
same,GI50,[17],1590 nM
same,GI50,[18],173 nM
same,GI50,[19],1440 nM
same,GI50,[20],712 nM
same,GI50,[21],182 nM
same,GI50,[22],208 nM
same,GI50,[23],1200 nM
same,Activity,[24],Dose-dependent effect
same,GI50,[25],165 nM
same,GI50,[26],196 nM
same,GI50,[27],1850 nM
same,GI50,[28],196 nM
same,GI50,[29],267 nM
same,GI50,[30],1030 nM
same,GI50,[31],176 nM
same,GI50,[32],449 nM
same,GI50,[33],1640 nM
same,GI50,[34],184 nM
same,GI50,[35],233 nM
same,GI50,[36],1300 nM
same,GI50,[37],195 nM
same,GI50,[38],1300 nM
same,inhibition,[39],55.5%
same,GI50,[40],1430 nM
same,GI50,[41],212 nM
same,IC50,[42],123000 nM
same,GI50,[43],195 nM
same,GI50,[44],502 nM
same,GI50,[45],956 nM
same,GI50,[46],198 nM
same,GI50,[47],246 nM
N=C(N)c1ccc(-c2ccc(-c3ccc(Cl)cc3)s2)cc1F,GI50,[1],589 nM
same,growth percent at 10 µM,[2],-67.3%
same,GI50,[3],272 nM
same,GI50,[4],1500 nM
same,GI50,[5],248 nM
same,GI50,[6],168 nM
same,GI50,[7],1720 nM
same,GI50,[8],224 nM
same,GI50,[9],203 nM
same,GI50,[10],194 nM
same,GI50,[11],268 nM
same,GI50,[12],197 nM
same,GI50,[13],217 nM
same,GI50,[14],163 nM
same,GI50,[15],726 nM
same,GI50,[16],192 nM
same,GI50,[17],361 nM
same,GI50,[18],171 nM
same,GI50,[19],218 nM
same,GI50,[20],517 nM
same,GI50,[21],215 nM
same,GI50,[22],200 nM
same,GI50,[23],983 nM
same,Activity,[24],Dose-dependent effect
same,GI50,[25],206 nM
same,GI50,[26],172 nM
same,GI50,[27],1620 nM
same,GI50,[28],205 nM
same,GI50,[29],203 nM
same,GI50,[30],341 nM
same,GI50,[31],205 nM
same,GI50,[32],187 nM
same,GI50,[33],1140 nM
same,GI50,[34],179 nM
same,GI50,[35],173 nM
same,GI50,[36],394 nM
same,GI50,[37],490 nM
same,GI50,[38],165 nM
same,inhibition,[39],59%
same,GI50,[40],1150 nM
same,GI50,[41],186 nM
same,IC50,[42],53100 nM
same,GI50,[43],207 nM
same,GI50,[44],386 nM
same,GI50,[45],1270 nM
same,GI50,[46],203 nM
same,GI50,[47],248 nM
